# Results taken from paper PMC4484629, “Targeting of anti-citrullinated protein/peptide antibodies in rheumatoid arthritis using peptides mimicking endogenously citrullinated fibrinogen antigens” (Arthritis Research & Therapy, 2015).
# Values joined by “and” are separate entries in the source; they are usually repeats but may differ in a detail not shown here. Equal entries are not always repeated. Where a SMILES comes first, the peptide text is derived from it. [ ]: non-standard residue; d: D form. Cit = NC(=O)NCCC[C@H](N)C(=O)O
# Assays:
# [1] = test system: sera from RA patients (EIRA cohort); assay: Peptide microarray (ImmunoCAP ISAC), immune reactivity of sera against the fibrinogen peptides; format: binding, human; conditions: for positive immune reactivity among anti-CCP2-positive RA patients: 402 CCP2-positive RA sera; for positive immune reactivity among anti-CCP2-positive RA patients / positive immune reactivity among anti-CCP2-negative RA patients: cutoff 98th percentile of healthy controls; for positive immune reactivity among anti-CCP2-negative RA patients: 525 CCP2-negative RA sera; for diagnostic sensitivity among all 927 RA patients: share of sera positive, Arg control intensity subtracted, cutoff 98th percentile of 461 healthy controls (98 % specificity)
# Description: Serum from 927 RA patients (newly diagnosed patients within 12 months of appearance of first symptoms; 402 CCP2 positive and 525 CCP2 negative) and 461 healthy controls from the Epidemiological Investigation of RA (EIRA) case-control cohort were collected. Control samples were randomly chosen from the Swedish population registry, matching for age, sex, and residential area. All serum and plasma samples were stored at −70 °C prior to analysis. All patients fulfilled the American College of Rheumatology-European League Against Rheumatism criteria for RA [20]. CCP2-positive RA individuals used for ACPA affinity purification were selected based on having high anti-CCP2 antibody levels (>300 AU/ml, Immunoscan CCPlus® assay, Euro-Diagnostica AB, Sweden). All patients gave written informed consent. This study was approved by the regional ethical committee at the Karolinska Institutet (96-174), and performed in accordance with the Declaration of Helsinki.
# Peptide microarray was performed as previously described. Briefly, peptides (sequences in Table 1) were immobilized onto a chemically modified glass slide, sera from RA patients and healthy controls were applied into the reactions sites, and fluorescence intensity after incubation with anti-human IgG antibody was acquired in a laser scanner (LuxScan 10K, CapitalBio, Beijing, China). Final results for each citrullinated peptide were calculated by subtracting the intensity values of the corresponding arginine-containing control from the citrullinated peptide for all RA patients and controls. Cutoff values were determined as the 98th percentile of the healthy control responses. Microarray data are available in the ArrayExpress database under accession number [EMBL:E-MTAB-3606].
# (§1) Results are presented as mean ± standard error (SEM) of values (two to seven experiments per ACPA pool), and were compared using the Student’s t-test for unpaired comparisons using GraphPad Prism 6 software (La Jolla, CA, USA). Median values were also calculated in order to consider non-Gaussian distributions. As the mean and median values were generally coincident, the Mann-Whitney U test was not selected for statistical analysis. P <0.05 was assumed to denote a significant difference. Relative IC50 values (IC50 definition according to International Union of Pharmacology Committee on Receptor Nomenclature and Drug Classification – ‘the molar concentration of an antagonist that reduces the response to an agonist by 50 %’ [25]) were also calculated using GraphPad Prism 6 software. Cutoffs for the ISAC system chip data were calculated as the 98th percentile reactivity among the 461 EIRA controls investigated in parallel to the 927 RA patients.
# [2] = test system: ACPA pool I (affinity purified human anti-CCP2 IgG); assay: ACPA competition assay: peptide pre-incubated with ACPA, then anti-CCP2 ELISA (CCPlus); format: binding; conditions: for maximum ACPA blocking (inhibition of anti-CCP2 reactivity): ACPA pool I 1.2 μg/ml (8 nM IgG), peptide 0.016-320 nmol in 225 μl, 1 h room temperature before CCP2 ELISA, mean of 2-7 experiments; for IC50: ACPA pool I 1.2 μg/ml, 1 h room temperature pre-incubation, mean ± SEM, n given per value (n = 2-6), GraphPad Prism, read-out: IC50 of ACPA blocking (relative IC50)
# Description: (§2) ACPA were affinity purified as recently described. Two different ACPA pools were prepared for the competition assays: ACPA pool I, containing autoantibodies purified from 11 plasma or serum samples (plasma n = 4, sera n = 7); and ACPA pool II, containing 39 plasma or serum samples (plasma n = 38, serum n = 1). Before pooling, each purified ACPA sample was individually tested by in house ELISA for immunoreactivity to fibrinogen Cit573 and citrullinated fibrinogen 36-52 [24]. Anti-CCP2 reactivity was determined using the Immunoscan CCPlus® assay. All pooled samples were CCP2 positive.
# (§3) ACPA pools I and II were used at a concentration of 1.2 μg/ml (8 nM IgG). The autoantibodies were incubated with the fibrinogen and fibrinogen-derived peptides at room temperature for one hour. The mole quantities of peptides tested were: 0.016, 0.16, 1.6, 16, 22, 49, 60, 80, 120, 160, 216, and 320 nmol in an incubation volume of 225 μl. ACPA blocking by the fibrinogen peptides was subsequently assessed by measuring the remaining anti-CCP2 reactivity. Cit573 and Cit591 were equally combined and co-tested for ACPA blocking. Arginine peptides (573, 591, 72, and 74) were used as negative controls in all assays.
# (§4) To further explore the blocking potential of Cit573, a retrieval assay was performed, that is, the ability of the peptide to compete with already CCP2-bound ACPA was tested. ACPA pool I was added to the CCP2 plate and incubated for one hour at room temperature, followed by the addition of the peptides (citrulline and unmodified peptides) at mole quantities ranging from 16 to 320 nmol. ACPA pools incubated with no peptide were defined as positive control, giving the maximum values of anti-CCP2 reactivity. Arbitrary units were calculated according to the standard curve given by the ELISA kit. Each experiment had one standard curve. Mean values were calculated and results are expressed as a function of percentage of inhibition of ACPA from the peptide amount (nmol).
# as §1
# [3] = test system: ACPA pool II (affinity purified human anti-CCP2 IgG); assay: as above; format: binding; conditions: for IC50: ACPA pool II 1.2 μg/ml, 1 h room temperature pre-incubation, mean ± SEM, n given per value (n = 2-4), GraphPad Prism, read-out: IC50 of ACPA blocking (relative IC50); for maximum ACPA blocking (inhibition of anti-CCP2 reactivity): ACPA pool II 1.2 μg/ml (8 nM IgG), peptide 0.016-320 nmol in 225 μl, 1 h room temperature before CCP2 ELISA, mean of 2-7 experiments
# Description: as §2, §3, §4, §1
# [4] = test system: ACPA pool I bound to CCP2 plate; assay: Retrieval assay: peptide competes with already CCP2-bound ACPA; format: binding, human; conditions: ACPA pool I bound to CCP2 plate 1 h room temperature, then peptide 16-320 nmol; data not shown
# Description: as §4
Structure (SMILES),IC50 [2],IC50 [3],ACPA binding to the CCP2 ELISA plate reverted (retrieval) [4],positive immune reactivity among anti-CCP2-positive RA patients [1],positive immune reactivity among anti-CCP2-negative RA patients [1],diagnostic sensitivity among all 927 RA patients [1],maximum ACPA blocking (inhibition of anti-CCP2 reactivity) [2],maximum ACPA blocking (inhibition of anti-CCP2 reactivity) ([2]; listed as cyclic form of the Cit573 peptide),maximum ACPA blocking (inhibition of anti-CCP2 reactivity) [3]
C[C@@H](O)[C@H](NC(=O)[C@H](CO)NC(=O)[C@H](CC(=O)O)NC(=O)CNC(=O)[C@H](CCCNC(N)=O)NC(=O)[C@H](CC(N)=O)NC(=O)[C@H](Cc1ccc(O)cc1)NC(=O)[C@H](CO)NC(=O)[C@@H](NC(=O)[C@H](CO)NC(=O)[C@H](CO)NC(=O)[C@@H](NC(=O)[C@H](Cc1ccccc1)NC(=O)[C@H](CCC(N)=O)NC(=O)[C@H](CCCCN)NC(=O)[C@@H](N)CO)[C@@H](C)O)[C@@H](C)O)C(=O)N[C@@H](Cc1ccccc1)C(=O)N[C@@H](CCC(=O)O)C(=O)N[C@@H](CO)C(=O)N[C@@H](CCCCN)C(=O)N[C@@H](CO)C(=O)O [Cit591] (H-SKQFTSSTSYN[Cit]GDSTFESKS-OH),194 µM,412 µM,,15% and 14.7%,6% and 6.1%,9.8%,63%,,
C[C@H](N)C(=O)N[C@@H](CCC(=O)O)C(=O)N[C@@H](Cc1ccccc1)C(=O)N1CCC[C@H]1C(=O)N[C@@H](CO)C(=O)N[C@@H](CCCNC(N)=O)C(=O)NCC(=O)N[C@@H](CCCCN)C(=O)N[C@@H](CO)C(=O)N[C@@H](CO)C(=O)N[C@@H](CO)C(=O)O [Cit573Lin2] (H-AEFPS[Cit]GKSSS-OH; N-terminus assumed),123 µM,105 µM,,,,,69%,,40%
CC[C@H](C)[C@H](NC(=O)CNC(=O)[C@@H]1CCCN1C(=O)[C@H](Cc1c[nH]cn1)NC(=O)[C@@H](N)Cc1c[nH]cn1)C(=O)N[C@@H](C)C(=O)N[C@@H](CCC(=O)O)C(=O)N[C@@H](Cc1ccccc1)C(=O)N1CCC[C@H]1C(=O)N[C@@H](CO)C(=O)N[C@@H](CCCNC(N)=O)C(=O)NCC(=O)N[C@@H](CCCCN)C(=O)N[C@@H](CO)C(=O)N[C@@H](CO)C(=O)N[C@@H](CO)C(=O)N[C@@H](Cc1ccc(O)cc1)C(=O)N[C@@H](CO)C(=O)N[C@@H](CCCCN)C(=O)N[C@@H](CCC(N)=O)C(=O)N[C@@H](Cc1ccccc1)C(=O)O [Cit573] (H-HHPGIAEFPS[Cit]GKSSSYSKQF-OH),59 µM,548 µM,80%,65% and 65.4%,5% and 5.5%,31.5%,84%,,Approximately 50%

# Stronger by IC50 [2], values ahead:
IC50 [2],IC50 [3],ACPA binding to the CCP2 ELISA plate reverted (retrieval) [4],Structure (SMILES),positive immune reactivity among anti-CCP2-positive RA patients [1],positive immune reactivity among anti-CCP2-negative RA patients [1],diagnostic sensitivity among all 927 RA patients [1],maximum ACPA blocking (inhibition of anti-CCP2 reactivity) [2],maximum ACPA blocking (inhibition of anti-CCP2 reactivity) ([2]; listed as cyclic form of the Cit573 peptide),maximum ACPA blocking (inhibition of anti-CCP2 reactivity) [3]
51 µM,186 µM,,CC[C@H](C)[C@H](NC(=O)CN)C(=O)N[C@@H](C)C(=O)N[C@@H](CCC(=O)O)C(=O)N[C@@H](Cc1ccccc1)C(=O)N1CCC[C@H]1C(=O)N[C@@H](CO)C(=O)N[C@@H](CCCNC(N)=O)C(=O)NCC(=O)N[C@@H](CCCCN)C(=O)N[C@@H](CO)C(=O)N[C@@H](CO)C(=O)N[C@@H](CO)C(=O)N[C@@H](Cc1ccc(O)cc1)C(=O)N[C@@H](CO)C(=O)O [Cit573Lin1] (H-GIAEFPS[Cit]GKSSSYS-OH; N-terminus assumed),,,,75%,,47%
28 µM,,,CC[C@H](C)[C@@H]1NC(=O)CNC(=O)[C@@H]2CCCN2C(=O)[C@H](Cc2c[nH]cn2)NC(=O)[C@H](Cc2c[nH]cn2)NC(=O)[C@H](CS)NC(=O)[C@H](Cc2ccccc2)NC(=O)[C@H](CCC(N)=O)NC(=O)[C@H](CCCCN)NC(=O)[C@H](CO)NC(=O)[C@H](Cc2ccc(O)cc2)NC(=O)[C@H](CO)NC(=O)[C@H](CO)NC(=O)[C@H](CO)NC(=O)[C@H](CCCCN)NC(=O)CNC(=O)[C@H](CCCNC(N)=O)NC(=O)[C@H](CO)NC(=O)[C@@H]2CCCN2C(=O)[C@H](Cc2ccccc2)NC(=O)[C@H](CCC(=O)O)NC(=O)[C@H](C)NC1=O [Cit573Cyc] (cyclo(CHHPGIAEFPS[Cit]GKSSSYSKQF)),,,,92%,approximately 90%,approximately 90%
